Drawing on US12581252B2, “Substituted pyrrolo[3,4-b]pyridines as PI3K-α inhibitors” (Relay Therapeutics, Inc., priority 2020, dated 2026), this text covers IC50 for 53 compounds.

SMILES strings stand for the structures. A value given as a limit tells only on which side of the number the result lay.

Sequence of H1047R PIK3CA enzyme (P42336 whole entry H1047R): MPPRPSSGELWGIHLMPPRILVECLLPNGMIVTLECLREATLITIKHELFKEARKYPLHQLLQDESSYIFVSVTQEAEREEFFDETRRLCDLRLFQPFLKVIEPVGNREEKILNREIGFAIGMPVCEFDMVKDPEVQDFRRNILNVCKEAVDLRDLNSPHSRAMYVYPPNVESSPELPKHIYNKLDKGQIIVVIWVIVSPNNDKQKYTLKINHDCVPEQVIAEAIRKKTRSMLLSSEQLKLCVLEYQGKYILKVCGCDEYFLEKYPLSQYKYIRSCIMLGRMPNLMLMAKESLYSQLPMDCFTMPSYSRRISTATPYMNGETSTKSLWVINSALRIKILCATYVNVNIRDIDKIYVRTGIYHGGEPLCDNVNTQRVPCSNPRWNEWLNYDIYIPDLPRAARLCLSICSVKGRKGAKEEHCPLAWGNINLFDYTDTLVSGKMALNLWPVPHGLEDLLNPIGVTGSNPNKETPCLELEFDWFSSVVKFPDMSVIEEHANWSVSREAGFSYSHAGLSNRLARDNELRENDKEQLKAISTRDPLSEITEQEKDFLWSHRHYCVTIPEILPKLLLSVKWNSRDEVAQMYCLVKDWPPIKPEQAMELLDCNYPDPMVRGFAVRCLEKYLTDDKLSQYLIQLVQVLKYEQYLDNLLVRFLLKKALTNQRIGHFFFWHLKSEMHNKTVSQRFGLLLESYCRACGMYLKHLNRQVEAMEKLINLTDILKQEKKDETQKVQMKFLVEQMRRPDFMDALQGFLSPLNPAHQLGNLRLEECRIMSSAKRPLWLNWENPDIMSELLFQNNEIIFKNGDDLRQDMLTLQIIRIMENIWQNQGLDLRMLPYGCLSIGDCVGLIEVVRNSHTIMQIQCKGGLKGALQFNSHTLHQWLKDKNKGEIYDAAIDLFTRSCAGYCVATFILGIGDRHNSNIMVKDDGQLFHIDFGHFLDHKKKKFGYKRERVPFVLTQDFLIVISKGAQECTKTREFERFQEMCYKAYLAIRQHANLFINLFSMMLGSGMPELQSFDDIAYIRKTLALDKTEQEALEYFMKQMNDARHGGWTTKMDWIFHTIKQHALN
Sequence of H1047R PIK3CA enzyme (P27986 whole entry partner): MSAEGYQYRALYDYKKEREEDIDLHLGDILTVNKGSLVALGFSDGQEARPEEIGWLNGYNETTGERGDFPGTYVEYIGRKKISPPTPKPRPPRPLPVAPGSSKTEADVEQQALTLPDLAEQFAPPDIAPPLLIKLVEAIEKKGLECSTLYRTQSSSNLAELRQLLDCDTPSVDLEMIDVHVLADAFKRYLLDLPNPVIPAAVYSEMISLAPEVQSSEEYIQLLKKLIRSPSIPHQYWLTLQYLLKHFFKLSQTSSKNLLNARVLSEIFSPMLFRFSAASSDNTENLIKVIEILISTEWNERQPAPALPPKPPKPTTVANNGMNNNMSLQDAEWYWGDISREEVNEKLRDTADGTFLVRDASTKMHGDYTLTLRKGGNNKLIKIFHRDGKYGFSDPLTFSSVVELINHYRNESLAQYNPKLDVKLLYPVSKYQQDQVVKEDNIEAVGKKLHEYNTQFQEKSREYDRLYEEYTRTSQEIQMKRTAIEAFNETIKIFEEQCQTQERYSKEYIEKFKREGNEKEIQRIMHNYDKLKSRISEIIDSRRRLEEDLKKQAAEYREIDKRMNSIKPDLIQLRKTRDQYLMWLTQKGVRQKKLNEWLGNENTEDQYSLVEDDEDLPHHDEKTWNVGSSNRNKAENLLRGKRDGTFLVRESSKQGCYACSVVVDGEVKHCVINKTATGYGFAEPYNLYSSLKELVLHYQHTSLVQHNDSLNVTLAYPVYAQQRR

The assay concerns the target H1047R PIK3CA enzyme (Homo sapiens, UniProt P42336, H1047R). The assay can be described thus: ADP-Glo Biochemical PIK3CA Kinase Assay. How it is done: Compounds to be assayed were plated in 16 doses of 1:2 serial dilutions (20 nL volume each well) on a 1536-well plate, and the plate warmed to room temperature. […] To the well was added 1 μL of 200 μM ATP and 20 μM of diC8-PIP2 in Substrate Assay Buffer (50 mM HEPES pH7.4, 50 mM NaCl, 5 mM DTT and 0.03% CHAPS) to start the reaction, and the plate was shaken for 10 seconds, then spun briefly at 1500 rpm, and then incubated for 60 minutes at room temperature. The reaction was stopped by adding 2 μL of ADP-Glo reagent (Promega), and spinning briefly at 1500 rpm, and then incubating for 40 minutes. ADP-Glo Detection reagent (Promega) was added and the plate spun briefly at 1500 rpm, then incubated for 30 minutes.
The term IC50 denotes the concentration at which inhibition is half-maximal. Read a low IC50 as greater potency in that assay. Compound `O=C(Nc1cc(-n2ccnc2)cc2c1[C@@H](c1cc(F)ccc1Cl)NC2=O)c1cc(F)cc(C(F)(F)F)c1` (stereo in doubt) [Compound I-1125] registered an IC50 of 100 to 500 nM. The value for `O=C1N[C@H](c2cc(F)ccc2Cl)c2c(NC(=O)N3C[C@@](O)(C(F)(F)F)c4cc(F)ccc43)cc(Cl)cc21` (single isomer, unassigned) [Compound I-2510] was 1000 to 10000 nM; that for `O=C(Nc1cc(-n2cncc2F)cc2c1C(c1cc(F)ccc1Cl)NC2=O)c1cc(F)cc(C(F)(F)F)c1` (centres unmarked) [Compound I-1128] was at most 100 nM. To `NC1(C(=O)Nc2cc(-c3ccc4ncnn4c3)cc3c2C(c2cc(F)ccc2Cl)NC3=O)CCCC1` (centres unmarked) [Compound I-1812] belongs 10000 to 100000 nM; to `CS(=O)(=O)Cc1cc(NC(=O)c2cc(F)cc(Cl)c2)c2c(c1)C(=O)NC2c1cc(F)ccc1Cl` (centres unmarked) [Compound I-231], at most 100 nM; to `CC(=O)N1CC[C@H](Oc2cc(NC(=O)c3cc(F)cc(C(F)(F)F)c3)c3c(c2)C(=O)NC3c2cc(F)ccc2Cl)C1` (single isomer, unassigned) [Compound I-1541], 100 to 500 nM. The value for `O=C1NC(c2cc(F)ccc2Cl)c2c(NC(=O)N3CC4(CCC4)c4ccccc43)cc(Br)cc21` (centres unmarked) [Compound I-1383] was 100 to 500 nM; that for `N#Cc1cnn(-c2cc(NC(=O)N3C[C@H](O)c4cc(F)ccc43)c3c(c2)C(=O)N[C@H]3c2cc(F)ccc2Cl)c1` [Compound I-2403] was at most 100 nM. In the case of `Cc1cc(Cl)ccc1C1NC(=O)c2cccc(NC(=O)c3nsc4ccccc34)c21` (centres unmarked) [Compound I-133], the IC50 was in the range of 1000 to 10000 nM. In turn, `O=C1N[C@H](c2cc(F)ccc2Cl)c2c(NC(=O)N3C[C@@H](O)C[C@@H]3CC(F)(F)F)cccc21` (racemic) [Compound I-2165] registered a 50% inhibitory concentration (IC50) of 10000 to 100000 nM.

For `O=C1NC(c2cc(F)ccc2Cl)c2c1cc(-c1ccc3ncnn3c1)cc2-c1ccc2ccccc2c1` (centres unmarked) [Compound I-1729], the IC50 was 1000 to 10000 nM. Consider `Cn1nccc1Nc1cc(NC(=O)c2cc(F)cc(C(F)(F)F)c2)c2c(c1)C(=O)N[C@H]2c1cc(F)ccc1Cl` [Compound I-1144], for which the IC50 is at most 100 nM. The value for `O=C(Nc1cc(Br)cc2c1[C@@H](c1cc(Cl)ccc1Cl)NC2=O)c1cc(F)cc(C(F)(F)F)c1` [Compound I-764] was 1000 to 10000 nM; that for `Cc1ccccc1[C@H]1NC(=O)c2cccc(NC(=O)c3nsc4ccccc34)c21` [Compound I-73] was 500 to 1000 nM; that for `CC(C)n1cc(-c2cc(NC(=O)c3cc(F)cc(C(F)(F)F)c3)c3c(n2)C(=O)NC3c2cc(F)ccc2Cl)ccc1=O` (centres unmarked) [Compound I-593] was at most 100 nM.

On to `O=C(Nc1c(F)ccc2c1C(c1cc(F)ccc1C(F)F)NC2=O)c1cc(F)cc(C(F)(F)F)c1` (centres unmarked) [Compound I-283, N-(3-(2-(Difluoromethyl)-5-fluorophenyl)-5-fluoro-1-oxoisoindolin-4-yl)-3-fluoro-5-(trifluoromethyl)benzamide], for which the IC50 lay within 500 to 1000 nM.

For the compound `O=C(Nc1cc(N[C@H]2C[C@@H](O)C2)cc2c1C(c1cc(F)ccc1Cl)NC2=O)c1cc(F)cc(C(F)(F)F)c1` (mixture of isomers) [Compound I-478], the half-maximal inhibitory concentration (IC50) is at most 100 nM.

Regarding `O=C(Nc1cnc(N2CC(F)(F)C2)c2c1C(c1cc(F)ccc1Cl)NC2=O)c1cc(F)cc(C(F)(F)F)c1` (centres unmarked) [Compound I-320], the IC50 was 100 to 500 nM.

`Cc1c(F)cccc1C1NC(=O)c2cc(Br)cc(NC(=O)c3cc(F)cc(C(F)(F)F)c3)c21` (centres unmarked) [Compound I-751] yielded an IC50 of 100 to 500 nM. The value for `Cn1c2c(c(NC(=O)c3cc(F)cc(C(F)(F)F)c3)cc1=O)C(c1cc(F)ccc1Cl)NC2=O` (centres unmarked) [Compound I-727] was 10000 to 100000 nM. To `Nc1ncc(-c2cc(NC(=O)c3cc(F)cc(C(F)(F)F)c3)c3c(c2)C(=O)NC3c2cc(F)ccc2Cl)cn1` (centres unmarked) [Compound I-885] belongs at most 100 nM; to `O=C(Nc1cc(C#Cc2cccnc2)cc2c1C(c1cc(F)ccc1Cl)NC2=O)c1cc(F)cc(C(F)(F)F)c1` (centres unmarked) [Compound I-1225], at most 100 nM. The value for `O=C(Nc1cc(NC(=O)C2CS(=O)(=O)C2)cc2c1C(c1cc(F)ccc1Cl)NC2=O)c1cc(F)cc(C(F)(F)F)c1` (centres unmarked) [Compound I-351] was at most 100 nM. With `CN(C)S(=O)(=O)c1cc(-c2ccc3ncnn3c2)cc2c1[C@@H](c1cc(F)ccc1Cl)NC2=O` [Compound I-2098], the IC50 was 10000 to 100000 nM. The value for `O=C(Nc1cc(-c2ccc3ncnn3c2)cc2c1C(c1cc(F)ccc1Cl)NC2=O)c1cc(F)cc(C(F)(F)F)c1` (centres unmarked) [Compound I-824] was at most 100 nM; that for `CS(=O)(=O)N1CC(c2cc(NC(=O)c3cc(F)cc(C(F)(F)F)c3)c3c(c2)C(=O)NC3c2cc(F)ccc2Cl)C1` (centres unmarked) [Compound I-1228] was at most 100 nM. To `O=C1N[C@@H](c2cc(F)ccc2Cl)c2c(NC(=O)c3nsc4ccccc34)cc(-c3ccc4ncnn4c3)cc21` (stereo in doubt) [Compound I-1829] belongs at most 100 nM; to `O=C(Nc1cc(CS(=O)(=O)N2CCOCC2)cc2c1[C@@H](c1cc(F)ccc1Cl)NC2=O)c1cc(F)cc(C(F)(F)F)c1` [Compound I-1484], 1000 to 10000 nM; to `O=C(Nc1cc(CC(O)CO)cc2c1C(c1cc(F)ccc1Cl)NC2=O)c1cc(F)cc(C(F)(F)F)c1` (centres unmarked) [Compound I-1376], at most 100 nM.

The compound `Cc1cc(=O)[nH]cc1C(=O)Nc1cc(Br)cc2c1[C@@H](c1cc(F)ccc1Cl)NC2=O` [Compound I-2107] showed a half-maximal inhibitory concentration (IC50) of 10000 to 100000 nM. The value for `O=C(Nc1cc(Br)cc2c1C(c1cc(F)ccc1Cl)NC2=O)c1cc(F)ccc1F` (centres unmarked) [Compound I-793] was 1000 to 10000 nM; that for `O=C1NC(c2cc(F)ccc2Cl)c2c(Nc3ccncc3)cc(Br)cc21` (centres unmarked) [Compound I-2025] was 10000 to 100000 nM; that for `O=C(Nc1cc(N[C@H]2C[C@H](F)C2)cc2c1C(c1cc(F)ccc1Cl)NC2=O)c1cc(F)cc(C(F)(F)F)c1` (single isomer, unassigned) [Compound I-540] was at most 100 nM. The value for `O=C1N[C@H](c2cc(F)ccc2Cl)c2c(NC(=O)N3C[C@H](CO)[C@@H](C(F)(F)F)C3)cccc21` (single isomer, unassigned) [Compound I-2278] was 10000 to 100000 nM; that for `O=C(Nc1cc(C2COC2)cc2c1[C@H](c1cc(F)ccc1Cl)NC2=O)c1cc(F)cc(C(F)(F)F)c1` [Compound I-590] was at most 100 nM. The value for `CCN(C(=O)Nc1cccc2c1C(c1cc(F)ccc1Cl)NC2=O)c1ccc(F)cc1` (centres unmarked) [Compound I-2434] was 10000 to 100000 nM; that for `C=Cc1ccc(NC(=O)c2nsc3ccccc23)c2c1C(=O)NC2c1ccccc1C` (centres unmarked) [Compound I-205] was 100 to 500 nM. The compound `O=C(Nc1cc(-c2ccnn2C[C@@H]2CCOC2)cc2c1C(c1cc(F)ccc1Cl)NC2=O)c1cc(F)cc(C(F)(F)F)c1` (single isomer, unassigned) [Compound I-1407] yielded a half-maximal inhibitory concentration (IC50) of at most 100 nM. To `CC(=O)Cc1cc(NC(=O)c2cc(F)cc(C(F)(F)F)c2)c2c(c1)C(=O)N[C@@H]2c1cc(F)ccc1Cl` [Compound I-623] belongs at most 100 nM; to `O=C(Nc1cc(-c2cnn3ncnc3c2)cc2c1C(c1cc(F)ccc1Cl)NC2=O)c1cc(F)cc(C(F)(F)F)c1` (centres unmarked) [Compound I-1824], at most 100 nM; to `C[C@H](c1nn[nH]c1C(=O)Nc1cccc2c1[C@H](c1cc(F)ccc1Cl)NC2=O)C(F)(F)F` (single isomer, unassigned) [Compound I-2269], 10000 to 100000 nM. As for `N#Cc1cnc2ccc(-c3cc(NC(=O)c4cc(F)cc(C(F)(F)F)c4)c4c(c3)C(=O)N[C@@H]4c3cc(F)ccc3Cl)cn12` [Compound I-1442], the 50% inhibitory concentration (IC50) lay in the range of 100 to 500 nM.

For the compound `O=C1NC(c2cc(F)ccc2Cl)c2c(C#Cc3cc(F)cc(C(F)(F)F)c3)cccc21` (centres unmarked) [Compound I-2187], the IC50 was in the range of 10000 to 100000 nM. In turn, `O=C(Nc1cc(Br)cc2c1[C@H](c1cc(F)ccc1C(F)F)NC2=O)c1cc(F)cc(C(F)(F)F)c1` [Compound I-797] came in with an IC50 of at most 100 nM. The compound `Cn1nccc1-c1cc(NC(=O)c2cc(F)cc(C(F)(F)F)c2)c2c(c1)C(=O)N[C@H]2c1cc(F)ccc1Cl` [Compound I-1136] had an IC50 of at most 100 nM. The value for `CC(C)[C@]1(O)CN(C(=O)Nc2cccc3c2[C@H](c2cc(F)ccc2Cl)NC3=O)c2ccc(F)cc21` (single isomer, unassigned) [Compound I-2453] was 1000 to 10000 nM. The value for `CC(C)(O)c1cc(NC(=O)c2cc(F)cc(C(F)(F)F)c2)c2c(c1)C(=O)NC2c1ccccc1C(F)F` (centres unmarked) [Compound I-355] was at most 100 nM; that for `Cc1ccccc1C1NC(=O)c2cc(CO)cc(NC(=O)c3nsc4ccccc34)c21` (centres unmarked) [Compound I-131, N-[6-(Hydroxymethyl)-3-(2-methylphenyl)-1-oxo-2,3-dihydro-1H-isoindol-4-yl]-1,2-benzothiazole-3-carboxamide] was at most 100 nM; that for `N#CC[C@@H](O)c1cc(NC(=O)c2cc(F)cc(C(F)(F)F)c2)c2c(c1)C(=O)N[C@H]2c1cc(F)ccc1Cl` (single isomer, unassigned) [Compound I-1393] was at most 100 nM.

The compound `C[C@H]([C@@H]1C[C@@H](O)CN1C(=O)Nc1cccc2c1[C@H](c1cc(F)ccc1Cl)NC2=O)C(F)(F)F` (racemic) [Compound I-2341] showed a half-inhibitory concentration (IC50) of 100 to 500 nM.

For `O=C(Nc1cccc2c1C(c1cc(F)ccc1C(F)F)NC2=O)c1cc(F)cc(C(F)(F)F)c1` (centres unmarked) [Compound I-138], the IC50 was at most 100 nM. To `O=C(Nc1cc(-c2ccc3ncnn3c2)cc2c1[C@H](c1cc(F)ccc1Cl)NC2=O)c1ccc(F)c(OC(F)(F)F)c1` (stereo in doubt) [Compound I-1107] belongs 100 to 500 nM; to `O=C(CC1CCC1)Nc1cc(-c2ccc3ncnn3c2)cc2c1C(c1cc(F)ccc1Cl)NC2=O` (centres unmarked) [Compound I-1777], 10000 to 100000 nM.
